The nature of this data set: gradient 5% acetonitrile 3 min, to 50% in 2 min, to 85% in 15 min, held 3 min, 100 µL/min. The note with it: column: Zorbax Extend-C18 2.1 x 50 mm; eluents: water / acetonitrile, 0.1% formic acid. An outline of the steps:
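Values are retention times taken from adduct peaks that software picked and an analyst inspected. The pure standards were run as mixtures of ~100 molecules on HPLC linked to a quadrupole time-of-flight mass spectrometer, in positive and negative ionization mode. A Zorbax Extend-C18 column (2.1 × 50 mm, 1.8 μm) was used at 100 μL/min with water and acetonitrile, each including 0.1% formic acid.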
`Cc1ccc2nc(-c3cccc(S(=O)(=O)N4CC(C)OC(C)C4)c3)cn2c1` (stereo not given): the RP-LC retention time was 640 s. The same measure for `COCCc1nncn1C1CCN(C(=O)c2cc(Cl)ccc2F)CC1`: 657 s; for `C=CCNC(=O)[C@@H]1[C@H](c2cc(OC)c(OC)c(OC)c2)c2cc3c(cc2[C@H](O)[C@H]1CO)OCO3`: 649 s; for `Cc1noc(-c2ccc(N3CCCC(C(=O)NC(C)c4ccco4)C3)nc2)n1` (stereo not given): 746 s. The same measure for `CCSc1nc2ccc(NS(=O)(=O)c3ccc(F)c(Cl)c3)cc2s1`: 1110 s; for `Cc1ccc(CNC(=O)c2ccc(-c3ccsc3)nc2)o1`: 824 s; for `CCN(CC)CCNC(=O)CCc1cc2cc(C)ccc2[nH]c1=O`: 587 s. Regarding `N#Cc1cccc(NC(=O)COc2ccc(-c3nnc4n3CCCC4)cc2)c1`, the RP-LC retention time stood at 653 s. With `Cc1ccc(N2C(=O)C3N=NN(Cc4nc(-c5ccccc5Cl)no4)C3C2=O)cc1` (stereo not given), the RP-LC retention time stood at 996 s.

`O=C(CCc1nnc2c3cc(-c4ccc(Cl)cc4)nn3ccn12)N1CCN(c2ccccn2)CC1` showed an RP-LC retention time of 955 s. Take `CCn1cc(S(=O)(=O)N2CC(N(Cc3cccnc3)CC(C)C)C2)cn1`: the RP-LC retention time came to 592 s.

The compound `O=C(CC1CCN(C(=O)c2ccc3oc(C4CC4)nc3c2)CC1)NCc1ccco1` registered an RP-LC retention time of 693 s. As for `Cc1ccc(CN2CCCC(c3nc(C(C)C)no3)CCNC(=O)CC2)o1` (stereo not given), the figure is 636 s. The same measure for `CC(C)C(=O)N1CCCc2ccc(NC(=O)c3ccc(F)c(F)c3)cc21`: 871 s.

Regarding `COc1ccc(NC(=O)Cn2ccnc2-c2ccnc(N3CCOCC3)c2)cc1Cl`, the RP-LC retention time was determined as 631 s. As for `O=C(NCc1cccs1)C1CCN(CCc2c[nH]c3ncccc23)CC1`, the figure is 563 s; as for `Cc1nnc2ccc(S(=O)(=O)N(Cc3ccccc3)c3cccc(F)c3)cn12`, 866 s; as for `COc1ccc(C(=O)CSc2nc(-c3ccc(OC)cc3)ns2)cc1`, 1090 s.

In turn, `Cc1ccc2[nH]c(C(N)=O)c(N3CCCC3=O)c2c1` came in with an RP-LC retention time of 646 s. As for `Cc1cc(-c2nc(-c3ccc(OC(F)(F)F)cc3)no2)nn1Cc1ccnc(N2CCN(C3CC3)CC2)c1`, the figure is 957 s; as for `FC(F)(F)c1cc(-c2cccs2)n(-c2nc(-c3ccccc3)cs2)n1`, 1450 s; as for `COc1ccccc1CNC1=NCCNC12CCN(S(=O)(=O)c1ccccc1C)CC2`, 732 s. The same measure for `Cc1ccn2c(NC(=O)COc3ccc(Cl)cc3)c(-c3ccccc3)nc2c1`: 714 s. As for `O=c1n(Cc2ccc(Cl)cc2)nc2ccc(S(=O)(=O)N3CCOCC3)cn12`, the figure is 676 s. `Cc1cc(C)n(-c2ccc(Nc3ccc(NS(=O)(=O)c4cccc(F)c4)cc3)nn2)n1` came in with an RP-LC retention time of 817 s.

Consider `O=C(NC1CC1)[C@@H]1C[C@H](Oc2cccnc2)CN1C(=O)c1ccco1`, for which the RP-LC retention time was 538 s.

In the case of `CC(CNC(=O)CCn1c(N2CCCC2)nc2ccsc2c1=O)c1ccccc1` (stereo not given), the RP-LC retention time was 819 s. As for `O=C(C1CC1)N1CCc2c([nH]c3ccccc23)C1c1ccc(F)cc1` (stereo not given), the figure is 1050 s; as for `COCCN(C)C(=O)c1cn(C2CN(S(=O)(=O)C(C)C)C2)nn1`, 635 s; as for `Cc1cccc(NC(=O)Cn2c(C)nc(C)c(C)c2=O)c1C`, 641 s. The same measure for `COc1cccc(N2CCN(S(=O)(=O)c3cc(-c4cc(C(F)(F)F)on4)cs3)CC2)c1`: 1200 s. As for `Cc1ccnc(N2CCCC(C(=O)NCC3CCN(Cc4ccc(Cl)cc4)CC3)C2)n1` (stereo not given), the figure is 624 s. `O=C(NCc1ccco1)C1CCN(c2nnc(-c3ccccc3)o2)CC1`: the RP-LC retention time is 718 s. As for `O=C(CSc1cnc2ccccc2n1)N1CCN(c2ccc(F)cc2)CC1`, the figure is 851 s; as for `CCOc1ccc(CC(=O)N2CCN(c3cc(CC)n4cnnc4n3)CC2)cc1`, 634 s. The same measure for `CCc1nnc([C@@H]2CC(F)(F)CN2C(=O)Cc2c(C)noc2C)o1`: 681 s; for `CN(CC1(C)CCOCC1)C(=O)Cc1c(F)cccc1Cl`: 863 s. As for `CCCCN1N=C(C(=O)N2CCCCCC2)S(=O)(=O)c2ccccc21`, the figure is 1030 s; as for `CN1C(=O)c2cccn2CC1CNC(=O)c1n[nH]c(=O)c2ccccc12` (stereo not given), 764 s; as for `O=[N+]([O-])c1ccc(CSc2nc3ccccc3o2)cc1`, 1020 s. Compound `CCc1ccc2nc(NC3=NCN(Cc4cccnc4)CN3)nc(C)c2c1` registered an RP-LC retention time of 608 s.

On to `O=C(Cn1nc2c3sc(N4CCCCC4)nc3ncn2c1=O)Nc1ccccc1`, for which the RP-LC retention time worked out at 768 s. With `COC[C@@H]1CN(S(=O)(=O)c2c(C)noc2C)C[C@H]1c1ccncc1`, the RP-LC retention time was 570 s.

For the compound `Cc1nc(NC(=O)Cn2nc3c(cc2=O)CCCC3)sc1C`, the RP-LC retention time was found to be 721 s.

Compound `COCc1nc(N2CCN(c3ccc(OC)cc3)CC2)ncc1C(=O)O` came in with an RP-LC retention time of 666 s. The same measure for `Cc1ccccc1CNC(=O)C1(C)CCCN(C(=O)NCc2ccco2)C1` (stereo not given): 809 s; for `CC(C)CC(=O)Nc1c(-c2ccc(F)cc2)nc2ccccn12`: 650 s; for `COc1ccc(-c2ncc3c(n2)CCN(C(=O)c2ccc(C)c(C)c2)C3)cc1`: 1030 s.

`CNC(=O)C1CN(S(=O)(=O)c2ccc(C)cc2)CC12CCCC2` (stereo not given) displayed an RP-LC retention time of 596 s. As for `CCCc1noc(-c2ccnc(-n3ncc(C(=O)NC4CCCC4)c3C)c2)n1`, the figure is 640 s; as for `Cc1cc(NC(=O)N2CCCC(Cn3cnc4cccnc43)C2)ccc1Br` (stereo not given), 784 s. As for `Fc1cccc(-c2noc(Cc3nc(-c4ccc(Cl)cc4)cs3)n2)c1`, the figure is 1330 s; as for `COc1ccc(-c2noc(C3CCCN3C(=O)c3ccc4c(c3)OCO4)n2)cc1OC` (stereo not given), 836 s; as for `Cc1c(CCC(=O)N2CCC(C(N)=O)CC2)c(=O)oc2cc3oc4c(c3cc12)CCCC4`, 795 s.

Compound `CCOC1CCOC2(CCN(C(=O)c3ccco3)CC2)C1` (stereo not given) registered an RP-LC retention time of 691 s. Take `Brc1cccc(-c2nnc(Cc3nc(-c4cccnc4)no3)o2)c1`: the RP-LC retention time was 845 s.

Compound `CCS(=O)(=O)c1ccc2c(c1)N(Cc1nc(-c3ccccc3Cl)no1)C(=O)CO2` gave an RP-LC retention time of 895 s. Take `CN1CCC(N2CCN(C(=O)c3cc(-c4ccc(F)cc4)cn3C)CC2)CC1`: the RP-LC retention time came out at 576 s. The same measure for `Fc1ccccc1-c1noc(-c2ncn3c2COC(c2ccccc2Cl)C3)n1` (stereo not given): 1080 s; for `CCN1CCN(c2ccc(-c3nc(-c4cccc(F)c4)no3)cn2)CC1`: 698 s.

As to `COc1cc2c(cc1C(=O)NCc1ccc3c(c1)CCCO3)OCCCO2`, the RP-LC retention time came out at 920 s. The same measure for `CCCNC(=O)N1C[C@@H]2CCCN3CCC[C@@H]([C@H]23)[C@H]1CCCC(=O)NCC1CC1`: 576 s; for `Cc1cccc(-c2nc(CNC(=O)CCC(F)(F)F)no2)c1`: 870 s. As for `COc1cc(OC)c(NS(=O)(=O)c2cc(-c3c(C)noc3NC(C)=O)ccc2OC)cc1Cl`, the figure is 792 s; as for `c1ccc(-c2ccc3c(c2)NCCN3)cc1`, 650 s.

`O=C(CCC1CCCC1)NC1(c2nc(-c3cccnc3)no2)CCCCC1` had an RP-LC retention time of 1020 s. As for `CC1Cc2ccccc2N1C(=O)CC1CCN(S(=O)(=O)c2ccc3c(c2)oc(=O)n3C)CC1` (stereo not given), the figure is 965 s; as for `CC1(C(=O)NCc2ccccc2)CN(S(=O)(=O)c2ccccc2)CC(=O)N1CCC1=CCCCC1` (stereo not given), 1090 s. As for `O=c1[nH]c2ccccc2nc1-c1cc(Cl)ccc1NS(=O)(=O)c1ccccc1`, the figure is 895 s; as for `COc1ccc(CCc2nc(C3CC(=O)N(c4ccc(F)c(Cl)c4)C3)no2)cc1` (stereo not given), 1040 s; as for `O=C(Cc1cccs1)NCc1cc(-c2ccc(Cl)cc2)on1`, 858 s.

As for `Cc1ccc(-c2nc(-c3ccc4oc(C)nc4c3)no2)cc1`, the RP-LC retention time was 1180 s.

In turn, `CCc1ccc(NC(=O)C2(C)Oc3cccnc3NC2=O)cc1` (stereo not given) displayed an RP-LC retention time of 770 s. As for `COc1ccc(C(C)NC(=O)C2C(=O)NC3(C)CC2c2ccccc2O3)cc1` (stereo not given), the figure is 747 s. The compound `Cc1ccc(Cl)c2c1NC(=O)C2(O)CC(=O)c1ccccc1` (stereo not given) had an RP-LC retention time of 760 s. The same measure for `Cc1ccccc1-c1noc(Cn2ccn(-c3ccccc3C)c(=O)c2=O)n1`: 880 s. As for `COc1cccc2c(C)nc(NC3=NCN(Cc4cccnc4)CN3)nc12`, the figure is 567 s; as for `O=C(CCC(=O)N1CCSc2ccccc21)N1CCN(c2ccccn2)CC1`, 618 s. Consider `CCCNC(=O)N1CCN(c2nc3ccccc3n(Cc3ccccc3)c2=O)CC1`, for which the RP-LC retention time came out at 863 s. The same measure for `CCCCNC(=O)CCC1CCCN(c2cc(NCC)ncn2)C1` (stereo not given): 641 s.

Source of the values: the METLIN SMRT retention time set (Domingo-Almenara et al. 2019).
